The conditions of data set [1]: cited from earlier work.
The format of data set [2] is physicochemical. The procedure:
The powder obtained by the process according to the invention as described above and in the following examples was also subjected to Differential Scanning Calorimetry (DSC). It will be apparent to one skilled in the art that the exothermic event at 100-140° C. is a heating-induced recrystallisation of the amorphous form to the crystalline prior art form. This is confirmed by XRPD data and confirms that the chemical entity of the initial amorphous material does represent olmesartan medoxomil. Further, it also confirms that the amorphous olmesartan medoxomil according to the above described embodiments of the invention is sufficiently kinetically stable or metastable, as no conversion to other polymorphic forms occurs below 100° C.
The DSC thermal analysis data was obtained using a Mettler-Toledo DSC821e apparatus under the following parameters:
(§1) Temperature profile: 25-300° C.@5° C./min
(§2) Nitrogen purge gas, 50 ml/min
(§3) Aluminium pan, […], pierced prior to scan

Data set [3] is described as follows: Thermo-Gravimetric Analysis (TGA): water content / hygroscopicity. Format: physicochemical. As to the method:
The powder obtained by the process according to the invention as described above and in the following examples was also subjected to Thermo-Gravimetric Analysis (TGA).
The water content was determined by weight loss in the TGA data at 25-105° C.
The TGA analysis data was obtained using a Mettler-Toledo TGA851e apparatus under the following parameters:
as §1, §2, §3

“Also recorded” adds a separate entry of the source.

Consider `CCCc1nc(C(C)(C)O)c(C(=O)OCc2oc(=O)oc2C)n1Cc1ccc(-c2ccccc2-c2nnn[nH]2)cc1` [Olmesartan medoxomil, 2,3-dihydroxy-2-butenyl 4-(1-hydroxy-1-methylethyl)-2-propyl-1-[p-(o-tetrazol-5-yl-phenyl)benzyl]imidazole-5-carboxylate cyclic 2,3-carbonate], for which the aqueous solubility result in data set [1] is “very low”.
Take `CCCc1nc(C(C)(C)O)c(C(=O)OCc2oc(=O)oc2C)n1Cc1ccc(-c2ccccc2-c2nnn[nH]2)cc1` [amorphous olmesartan medoxomil, 2,3-dihydroxy-2-butenyl 4-(1-hydroxy-1-methylethyl)-2-propyl-1-[p-(o-tetrazol-5-yl-phenyl)benzyl]imidazole-5-carboxylate cyclic 2,3-carbonate]: the “kinetic stability: temperature below which no conversion to other polymorphic forms occurs” value in data set [2] is at least 100 °C. The “exothermic event: heating-induced recrystallisation of the amorphous form to the crystalline prior art form” value in data set [2] (DSC, 25-300° C. at 5° C./min, nitrogen purge, confirmed by XRPD) is 100-140 °C. The hygroscopicity result in data set [3] is given as “surprisingly low hygroscopicity; also recorded: substantially non-hygroscopic”. Also, the water content result in data set [3] (weight loss in the TGA data at 25-105° C.) is on record as “less than 2 % by weight”.
